Measured values from patent publication US12527772B2, “Pharmaceutical combination comprising ponesimod” (Vanda Pharmaceuticals Inc., priority 2017, dated 2026).

Legend:
Format in all cases: in vivo
[1] = combination efficacy experiment, acute monophasic rat EAE model: body weight; conditions: ponesimod 30 mg/kg q.d. from day 0; over the 21 days study
Experimental: Groups of 10 rats are dosed orally starting at the day of disease induction (day 0) with different doses of teriflunomide in the range between 1 and 10 mg/kg once daily (q.d.) or with 30 mg/kg ponesimod q.d. Clinical scores are assessed on a daily basis and disease development is compared between vehicle-treated rats and rats receiving teriflunomide or ponesimod (vehicle: 0.5% Methylcellulose/0.5% Tween® 80/water). In parallel, body weights of the rats are monitored on a daily basis to follow general health. Hematology parameters, including lymphocyte counts, are measured at 3 different time points: 6 and 24 hours after the oral gavage at day 20 and at the termination of the experiment at day 21, 3 hours post dosing. Plasma samples can be taken for compound concentration determination and for the measurement of protein markers. The combination efficacy experiment is performed in the same rat EAE model as described for the first pilot experiment. It consists of four treatment groups: • 1. Vehicle (0.5% Methylcellulose/0.5% Tween® 80/water) q.d., from day 0 • 2. Teriflunomide (1 mg/kg) q.d., from day 0 • 3. Ponesimod (30 mg/kg) q.d., from day 0 • 4. Teriflunomide (1 mg/kg) q.d., from day 0+ponesimod (30 mg/kg) q.d., from day 0 In life and termination endpoints are the same as described for the first pilot experiment. […]

[2] = tested on: acute monophasic rat EAE model; assay: combination efficacy experiment, acute monophasic rat EAE model: clinical scores; conditions: for efficacy on the clinical course of EAE (average clinical score, FIG. 1): each compound alone, ponesimod 30 mg/kg q.d., teriflunomide 1 mg/kg q.d., from day 0, 21 days study; for severity of the disease (maximal clinical score reached over the 21 days study, FIG. 2): ponesimod 30 mg/kg q.d. and/or teriflunomide 1 mg/kg q.d. from day 0
Experimental: Female Lewis rats are immunized with an emulsion of myelin basic protein (MBP) from Guinea pig in complete Freund's adjuvant. A total of 200 micrograms of MBP is injected per rat at two sites subcutaneously (right paw and base of tail). Within 10 days the rats develop signs of paralysis which will be graded on a scale from 0 to 15 assessing the tail and each limb individually according to the method originally described by Weaver A. et al., FASEB J., 2005, 19(12): 1668-1670. The disease takes an acute monophasic course and is self-remitting. Usually by day 21 clinical scores reach values below 3.0.
(§1) Groups of 10 rats are dosed orally starting at the day of disease induction (day 0) with different doses of teriflunomide in the range between 1 and 10 mg/kg once daily (q.d.) or with 30 mg/kg ponesimod q.d. Clinical scores are assessed on a daily basis and disease development is compared between vehicle-treated rats and rats receiving teriflunomide or ponesimod (vehicle: 0.5% Methylcellulose/0.5% Tween® 80/water). In parallel, body weights of the rats are monitored on a daily basis to follow general health. Hematology parameters, including lymphocyte counts, are measured at 3 different time points: 6 and 24 hours after the oral gavage at day 20 and at the termination of the experiment at day 21, 3 hours post dosing. Plasma samples can be taken for compound concentration determination and for the measurement of protein markers.
The combination efficacy experiment is performed in the same rat EAE model as described for the first pilot experiment. It consists of four treatment groups: • 1. Vehicle (0.5% Methylcellulose/0.5% Tween® 80/water) q.d., from day 0 • 2. Teriflunomide (1 mg/kg) q.d., from day 0 • 3. Ponesimod (30 mg/kg) q.d., from day 0 • 4. Teriflunomide (1 mg/kg) q.d., from day 0+ponesimod (30 mg/kg) q.d., from day 0
In life and termination endpoints are the same as described for the first pilot experiment.
Data collected in the pilot experiment are similar to those obtained in the combination study and therefore are used to increase the monotherapy groups size in order to increase sensitivity as described by Bate S. et al., PLoS One., 2014, 9(12): e114872. […] When combined, the two compounds benefit from each other.

lymphocytes = assay: first pilot experiment, rat EAE model: hematology, lymphocyte counts; conditions: ponesimod 30 mg/kg oral q.d.; over 24 hours
Experimental: as §1, with “markers. Based on the first pilot experiment described above one dose of teriflunomide is selected for the combination efficacy experiment.” for “markers.”

[3] = tested on: acute monophasic models of experimental autoimmune encephalomyelitis (EAE); assay: first pilot experiment, acute monophasic rat EAE model: clinical scores; conditions: female Lewis rats, teriflunomide 1 mg/kg oral q.d. from day 0
Experimental: The efficacy of teriflunomide and ponesimod in acute monophasic models of experimental autoimmune encephalomyelitis (EAE) can be determined in a pilot experiment. Female Lewis rats are immunized with an emulsion of myelin basic protein (MBP) from Guinea pig in complete Freund's adjuvant. A total of 200 micrograms of MBP is injected per rat at two sites subcutaneously (right paw and base of tail). Within 10 days the rats develop signs of paralysis which will be graded on a scale from 0 to 15 assessing the tail and each limb individually according to the method originally described by Weaver A. et al., FASEB J., 2005, 19(12): 1668-1670. The disease takes an acute monophasic course and is self-remitting. Usually by day 21 clinical scores reach values below 3.0. Groups of 10 rats are dosed orally starting at the day of disease induction (day 0) with different doses of teriflunomide in the range between 1 and 10 mg/kg once daily (q.d.) or with 30 mg/kg ponesimod q.d. Clinical scores are assessed on a daily basis and disease development is compared between vehicle-treated rats and rats receiving teriflunomide or ponesimod (vehicle: 0.5% Methylcellulose/0.5% Tween® 80/water). In parallel, body weights of the rats are monitored on a daily basis to follow general health. Hematology parameters, including lymphocyte counts, are measured at 3 different time points: 6 and 24 hours after the oral gavage at day 20 and at the termination of the experiment at day 21, 3 hours post dosing. Plasma samples can be taken for compound concentration determination and for the measurement of protein markers. Based on the first pilot experiment described above one dose of teriflunomide is selected for the combination efficacy experiment.

[4] = teriflunomide alone 1 mg/kg q.d. from day 0

CCC/N=C1\S/C(=C\c2ccc(OC[C@H](O)CO)c(Cl)c2)C(=O)N1c1ccccc1C [ponesimod, (R)-5-[3-chloro-4-(2,3-dihydroxy-propoxy)-benz[Z]ylidene]-2-([Z]-propylimino)-3-o-tolyl-thiazolidin-4-one]
body weight loss (FIG. 3 and FIG. 4) [1]: reduction in body weight loss
efficacy on the clinical course of EAE (average clinical score, FIG. 1) [2]: moderate efficacy
severity of the disease (maximal clinical score reached over the 21 days study, FIG. 2) [2]: no effect
effect on clinical score during the ascending phase (FIG. 1) ([2]; ponesimod 30 mg/kg q.d. from day 0): moderate effect
reduction of lymphocytes (lymphocytes): partial reduction of lymphocytes

C/C(O)=C(\C#N)C(=O)Nc1ccc(C(F)(F)F)cc1 [teriflunomide, (Z)-2-cyano-3-hydroxy-but-2-enoic acid-(4-trifluoromethylphenyl)-amide]
efficacy on the clinical course of EAE (average clinical score, FIG. 1) [2]: moderate efficacy
severity of the disease (maximal clinical score reached over the 21 days study, FIG. 2) [2]: no effect
disease onset (FIG. 1) [2, 4]: strong delay of disease onset
efficacy on EAE scores (FIG. 1 and FIG. 2) [2, 4]: partial efficacy
disease onset [3]: strong delay of disease onset
efficacy on EAE scores [3]: partial efficacy
severity of the disease [3]: without affecting the severity of the disease
